# Data as given in patent EP0196849A2, “Aminohydroxyalkylbenzene anti-obesity and/or anti-hyperglycaemic agents” (BEECHAM GROUP PLC, priority 1985, dated 1986).
# Tested on: Female CFLP mice
# Assay: Anti-hyperglycaemic activity: subcutaneous glucose load in fasted mice, area under blood glucose curve
# Format: in vivo
# Conditions: 24 h fasted female CFLP mice, glucose 1 g/kg s.c. 30 min after dosing, 2-hour AUC vs water controls
# Experimental: Female CFLP mice, weighing approximately 25g, were fasted for 24 hours prior to the study. The compounds under study were administered orally as an aqueous solution to each of 6 mice. Thirty minutes later a blood sample (20ul) was obtained from the tail for the analysis of blood glucose. Immediately after taking this blood sample, glucose (lg/kg body weight) was administered subcutaneously to each mouse. Six mice were given water as a control. Blood samples were then obtained from each mouse at 30 minute intervals for 120 minutes.
# Compounds that produced a significant (p<0.05) reduction of blood glucose, compared with control mice given water, at any time interval were considered active. The area under the blood glucose curve over the 2-hour period after the administration of the glucose was calculated for each compound and compared with the value for control animals.
# [1] = Dose 5 µmol/kg orally as aqueous solution
smiles,measurement,setting,value
"O[C@@H](CNCCOc1ccc(OCCNC[C@H](O)c2cccc(Cl)c2)cc1)c1cccc(Cl)c1 [Example 5, (R,R)-α,α^1-[1,4-Phenylenedioxybis[(2,1-ethanediyl)-imino]methylene]bis[3-chlorobenzenemethanol]]",% Reduction in area under blood glucose curve,Dose 2.5 µmol/kg orally as aqueous solution,30%
"O[C@@H](CNCCc1ccc(CCNC[C@H](O)c2ccccc2)cc1)c1ccccc1 [Example 4, (R,R)-a,a'-[1,4-Phenylenebis [(2,1-ethanediyl)imino]-methylene]bis[benzenemethanol]]",% Reduction in area under blood glucose curve,Dose 12.5 µmol/kg orally as aqueous solution,4.2%
"O[C@@H](CNCCOc1ccc(OCCNC[C@H](O)c2ccccc2)cc1)c1ccccc1 [Example 3, (R,R)-a-a'-[1,4-Phenylenedioxybis [(2,1-ethanediyl)-imino]methylene] bis [benzenemethanol]]",% Reduction in area under blood glucose curve,[1],10%
"O[C@@H](CNCCc1ccc(CCNC[C@H](O)c2cccc(Cl)c2)cc1)c1cccc(Cl)c1 [Example 6, (R,R)-a,a'-[1,4-Phenylenebis[(2,1-ethanediyl]imino]-methylene]bis[3-chlorobenzenemethanol]]",% Reduction in area under blood glucose curve,[1],48%
"C[C@H](Cc1ccc(C[C@@H](C)NC[C@H](O)c2cccc(Cl)c2)cc1)NC[C@H](O)c1cccc(Cl)c1 [Example 2, (R,R,R,R)-α,α'-[1,4-Phenylenebis[(1-methyl-2,1-ethanediyl)imino]methylene]bis[3-chlorobenzenemethanol]]",% Reduction in area under blood glucose curve,Dose 25 µmol/kg orally as aqueous solution,49%
